According to publication PMC5161045 (Journal of Antimicrobial Chemotherapy, 2016):

Tested on: S. aureus DA36424
Experiment: Bacterial cell survival assay with human defensins
Type: cell-based, Staphylococcus aureus
Conditions: strain DA36424; 10 μM peptide, NaPB pH 7.4, exponential phase cells, 37°C, 2 h

Sequence: AFTCHCRRSCYSTEYSYGTCTVMGINHRFCCL (bicyclic or more) [HNP6]
- bacterial survival after defensin exposure, relative to WT (in words): significantly reduced survival
